The assay relates to primary human dermal papilla cells. Put plainly: Survival of metabolically stressed primary human dermal papilla cells (ATP, Cell Titer Glo). Type of assay: cell-based. More on the design: unit not given here. The note with it: DP cells metabolically stressed 48 hours in reduced media, ATP by Cell Titer Glo, vehicle = 0. As to the method: Primary human dermal papilla cells were metabolically stressed for 48 hours in reduced standard tissue culture media. During this period of stress the cells were treated with the mixtures below dosed from a DMSO vehicle. After 48 hours the metabolic activity of the cells was measured by the amount of ATP using the Cell Titer Glo™ kit (Promega).
The dermal papilla, in normal human hair, is the control center for hair diameter. Increasing survival of dermal papilla cells in situ leads to increased hair diameter. Accordingly, an increase in survival of dermal papilla cells correlates with an increase in hair diameter.

Turning to `CC(C)(CO)[C@@H](O)C(=O)NCCCO` [Panthenol, panthenol], the Survival was −0.17 (Table 1A), −0.17 (Table 1B), −0.01 (Table 2A) and −0.13 (Table 2B).
As to `NC(=O)c1cccnc1` [Niacinamide, niacinamide], the Survival was −0.02 (Table 1A), −0.02 (Table 1B), −0.16 (Table 2A) and 0.1 (Table 2B).
Regarding `OCCc1c[nH]c2ccccc12` [HI, Tryptophol], the Survival (Table 3) was found to be 1.72.
`OCc1c[nH]c2ccccc12` [Example I3C, Indole-3-Carbinol]: the Survival by setting is: (Table 2A) −0.16; (Table 2B) 0.08.
As to `O=C(O)Cc1c[nH]c2ccccc12` [IAA, indole-3-acetic acid], the Survival (Table 1A) is given as −0.17 and the Survival (Table 1B) is listed as −0.18.

The record behind these values is US20100120871A1, “HAIR CARE COMPOSITIONS, METHODS, AND ARTICLES OF COMMERCE THAT CAN INCREASE THE APPEARANCE OF THICKER AND FULLER HAIR” (priority 2008, published 2010).
